In patent publication US5262417A, “Antibacterial quinolone compounds” (The Upjohn Company, priority 1991, dated 1993):
Values after ≈ are worked out from the molar mass of the structure shown. Values joined by “and” are separate entries in the source; they are usually repeats but may differ in a detail not shown here. Equal values may be shown once. Read-outs that look alike come from different tables or passages of the source.

Tests used:
Type in all cases: cell-based
Pseudomonas aeruginosa = assay: Minimum inhibitory concentration (MIC) by agar dilution; conditions: for MIC: Pseudomonas aeruginosa
Outline: (§1)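 Susceptibility followed the NCCLS agar dilution procedure in unsupplemented Mueller Hinton agar, with bacterial inocula standardised to 0.5 McFarland turbidity and diluted 1:20 in Trypticase soy broth.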

Streptococcus pneumoniae = assay: as above; conditions: for MIC: Streptococcus pneumoniae
Outline: as §1

[1] = system: Staphylococcus aureus UC 80 (SA); assay: Dipped disk (disk-diffusion) assay, disks loaded with 0.10 ml
Protocol: (§2) The effectiveness of the subject compounds on some bacteria were obtained by performing a dipped disk assay. The antibacterial activity of the compounds is determined by the disk-diffusion method. […] They were then applied to the surface of microorganism-seeded agar assay trays, which contained the bacterial strain Pseudomonas aeruginosa UC 95 )PA), Escherichia coli UC 51 (EC) or Staphylococcus aureus UC 80 (SA). The assay trays were incubated overnight under aerobic condition to allow for the growth of the organisms. Zones of growth inhibition due to the action of the antibiotic were then measured to the nearest millimeter.

[2] = system: Pseudomonas aeruginosa UC 95 (PA); assay: as above; conditions: Pseudomonas aeruginosa, UC95; Conc 1 mg/ml, 0.10 ml per disk; read-out: Growth Inhibition Zone, PA
Protocol: as §2

O=C(O)c1cn(C2CC2)c2cc(N3CCNCC3)c(F)cc2c1=O [Ciprofloxacin, reference compound] was tested, and the “MINIMUM INHIBITORY CONCENTRATION” value (Pseudomonas aeruginosa; Cult No. 9191, MHA) was 0.25 mcg per ml and 0.125 mcg per ml, the MIC (Pseudomonas aeruginosa; 20 h, read-out: MINIMUM INHIBITORY CONCENTRATION, Cult No. 6676, MHA) was 0.5 µg/mL (≈ 1.51 µM) and the MIC (Pseudomonas aeruginosa; 20 h, read-out: MINIMUM INHIBITORY CONCENTRATION, Cult No. 9191, MHA) was 0.25 µg/mL (≈ 0.754 µM). For the same compound, the MIC (Pseudomonas aeruginosa; 20 h, read-out: MINIMUM INHIBITORY CONCENTRATION, Cult No. 12120, MHA) was 0.125 µg/mL (≈ 0.377 µM), the MIC (Pseudomonas aeruginosa; UC6676, 20 h, read-out: Minimum Inhibitory Concentration, Ps. aeruginosa UC 6676, Table CI) was 0.5 µg/mL (≈ 1.51 µM) and the MIC (Pseudomonas aeruginosa; UC9191, 20 h, read-out: Minimum Inhibitory Concentration, Ps. aeruginosa UC 9191, Table CI) was 0.125 µg/mL (≈ 0.377 µM). For the same compound, the MIC (Pseudomonas aeruginosa; UC12120, 20 h, read-out: Minimum Inhibitory Concentration, Ps. aeruginosa UC 12120, Table CI) was 0.125 µg/mL (≈ 0.377 µM), the “MINIMUM INHIBITORY CONCENTRATION” value (Streptococcus pneumoniae; Cult No. 41, MHA) was 0.5 mcg per ml and 0.25 mcg per ml and the MIC (Streptococcus pneumoniae; 20 h, read-out: MINIMUM INHIBITORY CONCENTRATION, Cult No. 41, MHA) was 0.5 µg/mL (≈ 1.51 µM). The MIC (Streptococcus pneumoniae; UC41, 20 h, read-out: Minimum Inhibitory Concentration, S. pneumoniae UC 41, Table CI) was 0.5 µg/mL (≈ 1.51 µM), the “Growth Inhibition Zone, SA” value ([1]; Conc 1 mg/ml, 0.10 ml per disk) was 30 mm and the zone of inhibition at 1000 µg/mL ([1]; Staphylococcus aureus, UC80, read-out: Growth Inhibition Zone, SA, Conc 1 mg/ml, 0.10 ml per disk) was 28 mm. For the same compound, the zone of inhibition at 1000 µg/mL [2] was 48 mm.
